Like-named read-outs stand apart in the source and are kept apart here. Each block holds one compound with its values, some of them ahead of it.
What was measured:
Assay type in all cases: cell-based
A. baumannii (Ab) AR# 33 = test: MIC of meropenem in combination with compound, CDC carbapenem resistant strain
Method: (§1) EXAMPLE 2: Six compounds were assessed for their activity in combination with meropenem against carbapenem resistant strains of A. baumannii (Ab), K. pneumoniae (Kp), and E. coli acquired from the Center for Disease Control (CDC). AR #—assigned AR-BANK number from the CDC.

A. baumannii (Ab) AR# 35 = test: as above
Method: as §1

A. baumannii (Ab) AR# 36 = test: as above
Method: as §1

A. baumannii (Ab) AR# 37 = test: as above
Method: as §1

A. baumannii (Ab) AR# 45 = test: as above
Method: as §1

A. baumannii (Ab) AR# 52 = test: as above
Method: as §1

A. baumannii (Ab) AR# 56 = test: as above
Method: as §1

A. baumannii (Ab) AR# 63 = test: as above
Method: as §1

A. baumannii (Ab) AR# 70 = test: as above
Method: as §1

A. baumannii (Ab) AR# 83 = test: as above
Method: as §1

A. baumannii (Ab) AR# 88 = test: as above
Method: as §1

E. coli AR# 48 = test: as above
Method: as §1

E. coli AR# 55 = test: as above
Method: as §1

[1] = tested on: K. pneumoniae (Kp) AR# 40; test: as above; conditions: 64 μM of 2-amino imidazole compound
Method: as §1

[2] = tested on: K. pneumoniae (Kp) AR# 41; test: as above; conditions: 64 μM of 2-amino imidazole compound
Method: as §1

[3] = tested on: K. pneumoniae (Kp) AR# 68; test: as above; conditions: 32 μM of 2-amino imidazole compound
Method: as §1

[4] = tested on: K. pneumoniae (Kp) AR# 98; test: as above
Method: as §1

A. baumannii AB5075 = test: MIC of carbapenems in presence and absence of 2-aminoimidazole compounds; conditions: Acinetobacter baumannii, no 2-AI compound (None)
Description: (§2) The minimal inhibitory concentration (MIC) values of imipenem (I); meropenem (M) and doripenem (D) in the presence and absence of 2-aminoimidazole compounds are provided in Table 1. The concentration of each compound used in μM in the MIC assay is shown in parentheses.

[5] = tested on: A. baumannii ATCC BAA-1605; test: as above; conditions: Acinetobacter baumannii, no 2-AI compound (None)
Description: as §2

[6] = tested on: K. pneumoniae ATCC BAA-1705; test: as above; conditions: Klebsiella pneumoniae, no 2-AI compound (None)
Description: as §2

[7] = tested on: K. pneumoniae ATCC BAA-2146; test: as above; conditions: Klebsiella pneumoniae, no 2-AI compound (None)
Description: as §2

[8] = 7 μM of 2-amino imidazole compound
[9] = 15 μM of 2-amino imidazole compound
[10] = 32 μM of 2-amino imidazole compound
[11] = 16 μM of 2-amino imidazole compound
[12] = 8 μM of 2-amino imidazole compound

Compound: Nc1ncc(-c2ccc(NC(=O)Nc3ccc(-c4cnc(N)[nH]4)cc3)cc2)[nH]1 [Compound 93, 1,3-bis(4-(2-amino-1H-imidazol-5-yl)phenyl)urea]
Minimum Inhibitory Concentration of Meropenem (A. baumannii (Ab) AR# 33; [8]): 64 (7) μg/mL
Minimum Inhibitory Concentration of Meropenem (A. baumannii (Ab) AR# 35; [9]): 32 (15) μg/mL
Minimum Inhibitory Concentration of Meropenem (A. baumannii (Ab) AR# 36; [9]): 16 (15) μg/mL
Minimum Inhibitory Concentration of Meropenem (A. baumannii (Ab) AR# 37; [8]): 64 (7) μg/mL
Minimum Inhibitory Concentration of Meropenem (A. baumannii (Ab) AR# 45; [8]): 2 (7) μg/mL
Minimum Inhibitory Concentration of Meropenem (A. baumannii (Ab) AR# 52; 4 μM of 2-amino imidazole compound): 3 (4) μg/mL
Minimum Inhibitory Concentration of Meropenem (A. baumannii (Ab) AR# 56; [9]): 16 (15) μg/mL
Minimum Inhibitory Concentration of Meropenem (A. baumannii (Ab) AR# 63; [9]): 8 (15) μg/mL
Minimum Inhibitory Concentration of Meropenem (A. baumannii (Ab) AR# 70; [8]): 1 (7) μg/mL
Minimum Inhibitory Concentration of Meropenem (A. baumannii (Ab) AR# 83; [9]): 64 (15) μg/mL
Minimum Inhibitory Concentration of Meropenem (A. baumannii (Ab) AR# 88; [8]): 64 (7) μg/mL
Minimum Inhibitory Concentration of Meropenem (E. coli AR# 48; [10]): 16 (32) μg/mL
Minimum Inhibitory Concentration of Meropenem (E. coli AR# 55; [11]): 128 (16) μg/mL
Minimum Inhibitory Concentration of Meropenem [1]: 1024 (64) μg/mL
Minimum Inhibitory Concentration of Meropenem [2]: 8 (64) μg/mL
Minimum Inhibitory Concentration of Meropenem [3]: 32 (32) μg/mL
Minimum Inhibitory Concentration of Meropenem [4, 10]: 32 (32) μg/mL

Compound: Nc1ncc(-c2ccc(NC(=O)Nc3ccc4c(c3)-c3[nH]c(N)nc3CC4)cc2)[nH]1 [Compound 97, 1-(4-(2-amino-1H-imidazol-5-yl)phenyl)-3-(2-amino-4,5-dihydro-1H-naphtho[1,2-d]imidazol-8-yl)urea]
Minimum Inhibitory Concentration of Meropenem (A. baumannii (Ab) AR# 33; [11]): 4 (16) μg/mL
Minimum Inhibitory Concentration of Meropenem (A. baumannii (Ab) AR# 35; [12]): 2 (8) μg/mL
Minimum Inhibitory Concentration of Meropenem (A. baumannii (Ab) AR# 36; [12]): 1 (8) μg/mL
Minimum Inhibitory Concentration of Meropenem (A. baumannii (Ab) AR# 37; [12]): 32 (8) μg/mL
Minimum Inhibitory Concentration of Meropenem (A. baumannii (Ab) AR# 45; [12]): 1 (8) μg/mL
Minimum Inhibitory Concentration of Meropenem (A. baumannii (Ab) AR# 52; 2 μM of 2-amino imidazole compound): 2 (2) μg/mL
Minimum Inhibitory Concentration of Meropenem (A. baumannii (Ab) AR# 56; [12]): 2 (8) μg/mL
Minimum Inhibitory Concentration of Meropenem (A. baumannii (Ab) AR# 63; [12]): 8 (8) μg/mL
Minimum Inhibitory Concentration of Meropenem (A. baumannii (Ab) AR# 70; [12]): 0.5 (8) μg/mL
Minimum Inhibitory Concentration of Meropenem (A. baumannii (Ab) AR# 83; [12]): 16 (8) μg/mL
Minimum Inhibitory Concentration of Meropenem (A. baumannii (Ab) AR# 88; [11]): 32 (16) μg/mL
Minimum Inhibitory Concentration of Meropenem (E. coli AR# 48; [11]): 128 (16) μg/mL
Minimum Inhibitory Concentration of Meropenem (E. coli AR# 55; [10]): 256 (32) μg/mL
Minimum Inhibitory Concentration of Meropenem [1]: 1024 (64) μg/mL
Minimum Inhibitory Concentration of Meropenem [2]: 16 (64) μg/mL
Minimum Inhibitory Concentration of Meropenem [3]: 64 (32) μg/mL
Minimum Inhibitory Concentration of Meropenem [4, 11]: 32 (16) μg/mL

MIC (A. baumannii AB5075; read-out: MIC of doripenem (D)): 32 µg/mL
MIC ([5]; read-out: MIC of doripenem (D)): 32 µg/mL
MIC ([6]; read-out: MIC of doripenem (D)): 64 µg/mL
MIC ([7]; read-out: MIC of doripenem (D)): 256 µg/mL
Compound: C[C@@H](O)[C@H]1C(=O)N2C(C(=O)O)=C(S[C@@H]3CN[C@H](CNS(N)(=O)=O)C3)[C@H](C)[C@H]12 [D, doripenem]

MIC (A. baumannii AB5075; read-out: MIC of imipenem (I)): 32 µg/mL
MIC ([5]; read-out: MIC of imipenem (I)): 32 µg/mL
MIC ([6]; read-out: MIC of imipenem (I)): 64 µg/mL
MIC ([7]; read-out: MIC of imipenem (I)): 128 µg/mL
Compound: C[C@@H](O)[C@H]1C(=O)N2C(C(=O)O)=C(SCCN=CN)C[C@H]12 [I, imipenem]
